Assay results: ChEMBL document CHEMBL6114951, “Discovery of 3-amide-pyrimidine-based derivatives as potential fms-like tyrosine receptor kinase 3 (FLT3) inhibitors for treating acute myelogenous leukemia” (Bioorg Med Chem Lett, 2025)

Assays:
MV4-11 [1] = assay: Cell cycle arrest in human MV4-11 cells assessed as accumulation at G1-phase at 0.2 uM measured after 24 hrs by propidium iodide staining based flow cytometry (reference value: 70.31%); type: functional
MV4-11 [2] = assay: Cell cycle arrest in human MV4-11 cells assessed as accumulation at G2-phase at 0.2 uM measured after 24 hrs by propidium iodide staining based flow cytometry (reference value: 8.87%); type: functional
MV4-11 [3] = assay: Cell cycle arrest in human MV4-11 cells assessed as accumulation at S-phase at 0.2 uM measured after 24 hrs by propidium iodide staining based flow cytometry (reference value: 20.83%); type: functional
MV4-11 [4] = assay: Induction of apoptosis in human MV4-11 cells assessed as viable cells at 0.2 uM measured after 24 hrs by Annexin V-FITC/propidium iodide staining based flow cytometry (reference value: 92.7%); type: functional; settings: read-out: Activity
MV4-11 [5] = assay: Induction of apoptosis in human MV4-11 cells assessed as early apoptotic cells at 0.2 uM measured after 24 hrs by Annexin V-FITC/propidium iodide staining based flow cytometry (reference value: 5.2%); type: functional
MV4-11 [6] = assay: Induction of apoptosis in human MV4-11 cells assessed as late apoptotic cells at 0.2 uM measured after 24 hrs by Annexin V-FITC/propidium iodide staining based flow cytometry (reference value: 2%); type: functional
MV4-11 [7] = assay: Induction of apoptosis in human MV4-11 cells assessed as necrotic cells at 0.2 uM measured after 24 hrs by Annexin V-FITC/propidium iodide staining based flow cytometry (reference value: 0.2%); type: functional
MV4-11 [8] = assay: Induction of mitochondrial membrane potential loss in human MV4-11 cells assessed as cells with high MMP (aggregates) at 0.2 uM measured after 24 hrs by JC-1 staining based flow cytometry (reference value: 97%); type: functional
MV4-11 [9] = assay: Induction of mitochondrial membrane potential loss in human MV4-11 cells assessed as cells with low MMP (monomers) at 0.2 uM measured after 24 hrs by JC-1 staining based flow cytometry (reference value: 2.9%); type: functional
[10] = Effect on total FLT3 expression in human MV4-11 cells at 0.2 uM measured after 24 hrs by Western blot analysis; type: toxicity, cell-based; settings: mv4-11, 24 h
[11] = Effect on total STAT5 expression in human MV4-11 cells at 0.2 uM measured after 24 hrs by Western blot analysis; type: toxicity, cell-based; settings: mv4-11, 24 h
[12] = Effect on total ERK expression in human MV4-11 cells at 0.2 uM measured after 24 hrs by Western blot analysis; type: toxicity, cell-based; settings: mv4-11, 24 h
[13] = Effect on total AKT expression in human MV4-11 cells at 0.2 uM measured after 24 hrs by Western blot analysis; type: toxicity, cell-based; settings: mv4-11, 24 h
[14] = biological target: Mast/stem cell growth factor receptor Kit (Homo sapiens, UniProt P10721)
Sequence of Mast/stem cell growth factor receptor Kit (P10721 whole entry): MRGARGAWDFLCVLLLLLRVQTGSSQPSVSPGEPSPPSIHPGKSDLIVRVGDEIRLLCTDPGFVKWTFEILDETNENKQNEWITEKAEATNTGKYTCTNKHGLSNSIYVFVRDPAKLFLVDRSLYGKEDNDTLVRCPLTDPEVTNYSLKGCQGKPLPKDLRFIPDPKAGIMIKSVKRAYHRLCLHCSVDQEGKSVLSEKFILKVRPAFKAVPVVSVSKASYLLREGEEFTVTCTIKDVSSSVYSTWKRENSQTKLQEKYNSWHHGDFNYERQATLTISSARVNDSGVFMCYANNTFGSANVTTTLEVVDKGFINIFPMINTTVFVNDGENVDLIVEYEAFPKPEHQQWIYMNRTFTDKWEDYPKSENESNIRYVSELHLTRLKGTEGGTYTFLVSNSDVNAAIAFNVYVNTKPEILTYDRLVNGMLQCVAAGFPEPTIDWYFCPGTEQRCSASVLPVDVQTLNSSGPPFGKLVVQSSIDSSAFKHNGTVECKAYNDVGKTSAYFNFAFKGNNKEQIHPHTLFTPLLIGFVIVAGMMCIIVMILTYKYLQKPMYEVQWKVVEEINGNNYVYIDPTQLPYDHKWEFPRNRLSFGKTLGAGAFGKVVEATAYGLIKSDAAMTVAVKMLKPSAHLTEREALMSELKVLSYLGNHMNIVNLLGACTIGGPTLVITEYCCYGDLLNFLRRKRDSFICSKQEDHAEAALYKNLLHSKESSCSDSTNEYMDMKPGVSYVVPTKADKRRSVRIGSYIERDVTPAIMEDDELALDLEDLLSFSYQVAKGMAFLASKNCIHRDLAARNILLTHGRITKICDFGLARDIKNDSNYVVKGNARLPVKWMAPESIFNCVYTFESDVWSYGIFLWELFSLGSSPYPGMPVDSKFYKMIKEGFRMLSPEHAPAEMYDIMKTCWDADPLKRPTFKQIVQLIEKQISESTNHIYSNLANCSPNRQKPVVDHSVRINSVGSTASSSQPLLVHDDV
Description: Inhibition of c-Kit (unknown origin)

MV4-11 [15] = assay: cells; settings: Homo sapiens
Description: Antiproliferative activity against human MV4-11 cells by CCK-8 assay

A549 = assay: cells; settings: Homo sapiens
Description: Antiproliferative activity against human A549 cells by CCK-8 assay

HCT-116 = assay: cells; settings: Homo sapiens
Description: Antiproliferative activity against human HCT-116 cells by CCK-8 assay

in vitro = settings: human, HEK293T cells
Description: Cytotoxicity against HEK293T cells by CCK-8 assay

SMILES | IC50 (MV4-11 [15]) | IC50 (A549) | IC50 (HCT-116) | further results
CN1CCC(Nc2nc(Nc3ccc(Oc4ccccc4)cc3)c3c(=O)[nH]cc(Br)c3n2)CC1 [DENFIVONTINIB] | 0.003 µM | 0.14 µM | 3.13 µM | Activity (MV4-11 [1]): 89.36%; Activity (MV4-11 [2]): 4.11%; Activity (MV4-11 [3]): 6.52%; viability at 0.2 µM (MV4-11 [4]): 15.8%; Activity (MV4-11 [5]): 49.6%; Activity (MV4-11 [6]): 33.9%; Activity (MV4-11 [7]): 0.7%; Activity (MV4-11 [8]): 85.1%; Activity (MV4-11 [9]): 14.6%; Activity [10]: Non-toxic; Activity [11]: Non-toxic; Activity [12]: Non-toxic; Activity [13]: Non-toxic; IC50 [14]: 0.0038 µM; IC50 (in vitro): 9.67 µM
NC(=O)c1cnc(NC2CCCC2)nc1Nc1ccc(Oc2ccccc2)cc1 | 7.68 µM | 20 µM | 23.3 µM | –
CC(=O)N1CCC(Nc2nc(Nc3ccc(Oc4ccccc4)cc3)c3ccccc3n2)CC1 | 6.96 µM | 9.87 µM | 24.2 µM | –
CN1CCC(Nc2ncc(C#N)c(Nc3ccc(Oc4ccccc4)cc3)n2)CC1 | 12.5 µM | > 50 µM | 8.99 µM | –
CCOC(=O)c1c(C)nc(NC2CCN(C)CC2)nc1Nc1ccc(Oc2ccccc2)cc1 | 5.36 µM | 7.86 µM | 1.35 µM | –
CN1CCC(Nc2nc(Nc3ccc(Oc4ccccc4)cc3)c3ccccc3n2)CC1 | 5.13 µM | 4.05 µM | 8.51 µM | –
CC(C)N1CCC(Nc2ncc(C#N)c(Nc3ccc(Oc4ccccc4)cc3)n2)CC1 | 7.19 µM | > 50 µM | > 50 µM | –
N#Cc1cnc(N2CCCC2)nc1Nc1ccc(Oc2ccccc2)cc1 | 30.9 µM | > 50 µM | > 50 µM | –
